Assay [1] concerns sAPPβ release, SH-SY5Y cells. The assay can be described thus: sAPPβ release assay. Type of assay: cell-based. The note with it: 17 h incubation, MSD detection. On the procedure:
SH-SY5Y cells were cultured in DMEM/F-12 with Glutamax, 10% FCS and 1% non-essential amino acids and cryopreserved and stored at −140° C. at a concentration of 7.5-9.5×10^6 cells per vial. Thaw cells and seed at a conc. of around 10000 cells/well in DMEM/F-12 with Glutamax, 10% FCS and 1% non-essential amino acids to a 384-well tissue culture treated plate, […] cell susp/well. The cell plates were then incubated for 7-24 h at 37° C., 5% CO2. The cell medium was removed, followed by addition of 30 μL compound diluted in DMEM/F-12 with Glutamax, 10% FCS, 1% non-essential amino acids and 1% PeSt to a final conc. of 1% DMSO. The compounds were incubated with the cells for 17 h (overnight) at 37° C., 5% CO2. Meso Scale Discovery (MSD) plates were used for the detection of sAPPβ release. MSD sAPPβ plates were blocked in 1% BSA in Tris wash buffer (40 μL/well) for 1 h on shake at r.t. and washed 1 time in Tris wash buffer (40 μL/well). 20 μL of medium was transferred to the pre-blocked and washed MSD sAPPβ microplates, and the cell plates were further used in an ATP assay to measure cytotoxicity. The MSD plates were incubated with shaking at r.t. for 2 h and the media discarded. 10 μL detection antibody was added (1 nM) per well followed by incubation with shaking at r.t. for 2 h and then discarded. 40 μL Read Buffer was added per well and the plates were read in a SECTOR Imager.

Assay [2] addresses T1, human β-Secretase (Homo sapiens (Human), UniProt P56817). The assay can be described thus: Diluted TR-FRET assay. The assay is classed as biochemical. The note with it: footnote a: diluted FRET assay, 50 times less enzyme, 6.5 h reaction time at r.t.; read-out: IC50 in TR-FRET assay (IC50 from the diluted FRET assay). On the procedure: (§1) The cDNA for the soluble part of the human β-Secretase (AA 1-AA 460) was cloned using the ASP2-Fc10-1-IRES-GFP-neoK mammalian expression vector. The gene was fused to the Fc domain of IgG1 (affinity tag) and stably cloned into HEK 293 cells.
(§2) The enzyme (truncated form) was diluted to 6 μg/mL (stock 1.3 mg/mL) and the TruPoint BACE1 Substrate to 200 nM (stock 120 μM) in reaction buffer (NaAcetate, chaps, triton x-100, EDTA pH4.5). Enzyme and compound in dimethylsulphoxide (final DMSO concentration 5%) was mixed and pre-incubated for 10 minutes at RT. Substrate was then added and the reaction was incubated for 15 minutes at RT. The reaction was stopped with the addition of 0.35 vol Stop solution (NaAcetate, pH 9). The fluorescence of the product was measured on a Victor II plate reader with excitation wavelengths of 340-485 nm and emission wavelengths of 590-615 nm. […] The dimethylsulphoxide control, instead of test compound, defined the 100% activity level and 0% activity was defined by wells lacking enzyme (replaced with reaction buffer) or by a saturating dose of a known inhibitor, 2-amino-6-[3-(3-methoxyphenyl)phenyl]-3,6-dimethyl-5H-pyrimidin-4-one.
Compounds with a high affinity were further tested in a diluted TR-FRET assay, conditions as described above for the TR-FRET assay, but with 50 times less enzyme and a 6.5 h long reaction time at r.t. in the dark.
For orientation: Time-resolved FRET reads energy transfer from a long-lived donor to a nearby acceptor.

In assay [3] the target is T1, human β-Secretase. In words: TR-FRET assay. Type of assay: biochemical. The note with it: sBACE-Fc 2.7 μg/ml, substrate 100 nM, pH 4.5, 15 minutes at RT. On the procedure: The β-secretase enzyme used in the TR-FRET is prepared as follows:
as §1, §2

Where only a bound is given, the exact number is not on record here.

T1 sequence (P56817 22-460): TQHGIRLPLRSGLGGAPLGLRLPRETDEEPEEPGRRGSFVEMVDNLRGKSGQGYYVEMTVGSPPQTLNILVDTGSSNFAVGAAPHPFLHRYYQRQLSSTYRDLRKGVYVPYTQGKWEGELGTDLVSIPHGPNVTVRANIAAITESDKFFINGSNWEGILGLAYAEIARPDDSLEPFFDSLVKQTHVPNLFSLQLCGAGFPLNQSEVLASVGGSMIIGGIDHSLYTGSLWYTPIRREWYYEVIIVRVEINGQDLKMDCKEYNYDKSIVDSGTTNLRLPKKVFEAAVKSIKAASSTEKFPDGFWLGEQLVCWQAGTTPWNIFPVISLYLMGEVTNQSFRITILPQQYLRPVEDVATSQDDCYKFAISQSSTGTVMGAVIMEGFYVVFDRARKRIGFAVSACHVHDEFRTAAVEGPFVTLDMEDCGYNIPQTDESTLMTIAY

One may read the IC50 as the concentration at which inhibition is half-maximal. With `CO[C@H]1CC[C@@]2(CCc3ccc(-c4cncc(Cl)c4)cc3C23N=C(C)C(N)=N3)CC1` (single isomer, unassigned; isomer 1) [7, isomer 1], the concentration for half-maximal inhibition (IC50) in assay [1] is 2.5 nM; on human β-Secretase [2] it was 14 nM.
For the molecule `CC1=NC2(N=C1N)c1cc(-c3cc(F)cc(F)c3)ccc1CCC21CC1` (centres unmarked) [Example 3, 7′-(3,5-Difluorophenyl)-5″-methyl-3′,4′-dihydrodispiro[cyclopropane-1,2′-naphthalene-1′,2″-imidazol]-4″-amine], the IC50 against human β-Secretase [3] is 130 nM; in assay [1] (Homo sapiens) it was 118 nM.
For the molecule `CO[C@H]1CC[C@]2(CCc3ccc(Br)cc3C23N=C(C)C(N)=N3)CC1` (single isomer, unassigned; isomer 2) [5, isomer 2], half-maximal inhibition against human β-Secretase [3] (IC50) required 8920 nM.
Still for that read-out and setting: the same measure for `CO[C@H]1CC[C@@]2(CCc3ccc(-c4cc(Cl)cc(C#N)c4)cc3[C@@]23N=C(C)C(N)=N3)CC1` (single isomer, unassigned; isomer 2) [11, isomer 2]: over 5000 nM.
Regarding `COC1CCC2(CCc3ccc(-c4cc(Cl)cc(C#N)c4)cc3C23N=C(C)C(N)=N3)CC1` (single isomer, unassigned; isomer 1) [10, isomer 1], the 50% inhibitory concentration (IC50) in assay [1] is 3.1 nM; at human β-Secretase [2], 5.7 nM.
In the case of `CC#Cc1cncc(-c2ccc3c(c2)C2(N=C(C)C(N)=N2)[C@]2(CC3)CC[C@H](OC)CC2)c1` (single isomer, unassigned; isomer 1) [8, isomer 1], the concentration for half-maximal inhibition (IC50) at human β-Secretase [3] turned out to be 212 nM; in assay [1], 81 nM.
As for `CO[C@H]1CC[C@@]2(CCc3ccc(Br)cc3C23N=C(C)C(N)=N3)CC1` (single isomer, unassigned; isomer 1) [5, isomer 1], the IC50 on human β-Secretase [3] is 411 nM; in assay [1] it was 78 nM.
For the molecule `CO[C@H]1CC[C@]2(CCc3ccc(-c4cncc(Cl)c4)cc3C23N=C(C)C(N)=N3)CC1` (single isomer, unassigned; isomer 2) [7, isomer 2], the IC50 against human β-Secretase [3] amounted to 333 nM; in assay [1], 19 nM.
The like results for `COc1cc(C#N)cc(-c2ccc3c(c2)C2(N=C(C)C(N)=N2)[C@]2(CC3)CC[C@H](OC)CC2)c1` (single isomer, unassigned; isomer 2) [6, isomer 2] were, in that order, 587 nM and 80 nM.
Regarding `CC1=NC2(N=C1N)c1cc(-c3cncc(Cl)c3)ccc1CCC21CC1` (centres unmarked) [Example 4, 7′-(5-Chloropyridin-3-yl)-5″-methyl-3′,4′-dihydrodispiro[cyclopropane-1,2′-naphthalene-1′,2″-imidazol]-4″-amine], it took 11 nM to reach half-maximal inhibition in assay [1] (Homo sapiens) (IC50).
In the case of `CC1=NC2(N=C1N)c1cc(-c3cc(Cl)cc(C#N)c3)ccc1CCC21CC1` (centres unmarked) [Example 9, 3-(4″-Amino-5″-methyl-3′,4′-dihydrodispiro[cyclopropane-1,2′-naphthalene-1′,2″-imidazol]-7′-yl)-5-chlorobenzonitrile], the IC50 in assay [1] (Homo sapiens) was 16 nM; at human β-Secretase [2] it was 15 nM.
For `COc1cc(C#N)cc(-c2ccc3c(c2)C2(N=C(C)C(N)=N2)[C@]2(CC3)CC[C@@H](OC)CC2)c1` (single isomer, unassigned; isomer 1) [6, isomer 1], the IC50 in assay [1] is 1 nM; on human β-Secretase [2] it was 5 nM.
As for `CO[C@H]1CC[C@]2(CCc3ccc(-c4cc(Cl)cc(C#N)c4)cc3C23N=C(C)C(N)=N3)CC1` (single isomer, unassigned; isomer 1) [11, isomer 1], the IC50 in assay [1] worked out at 4.5 nM; on human β-Secretase [2], 3.6 nM.
Regarding `CO[C@H]1CC[C@@]2(CCc3ccc(-c4cc(Cl)cc(C#N)c4)cc3C23N=C(C)C(N)=N3)CC1` (single isomer, unassigned; isomer 2) [10, isomer 2], the figures for the IC50 (on human β-Secretase [3]; in assay [1]) were 392 nM and 92 nM, respectively.
Consider `CC1=NC2(N=C1N)c1cc(-c3cc(F)cc(C#N)c3)ccc1CCC21CC1` (centres unmarked) [Example 2, 3-(4″-Amino-5″-methyl-3′,4′-dihydrodispiro[cyclopropane-1,2′-naphthalene-1′,2″-imidazol]-7′-yl)-5-fluorobenzonitrile], for which the IC50 stood at 79 nM against human β-Secretase [3] and 23 nM in assay [1] (Homo sapiens).
Turning to `CC#Cc1cncc(-c2ccc3c(c2)C2(N=C(C)C(N)=N2)[C@]2(CC3)CC[C@@H](OC)CC2)c1` (single isomer, unassigned; isomer 2) [8, isomer 2], the figures for the IC50 (against human β-Secretase [3]; in assay [1]) were 19 nM and 2.4 nM, respectively.

Source of the values: US9000184B2, “Cyclohexane-1,2′-naphthalene-1′,2″-imidazol compounds and their use as BACE inhibitors” (AstraZeneca AB, priority 2012, dated 2015).
